Results on 4 molecules are retold here after patent publication US20220177418A1, “INHIBITORS OF THE N-TERMINAL DOMAIN OF THE ANDROGEN RECEPTOR” (The Regents of the University of California, priority 2019, published 2022).

Type in all cases: cell-based
The subject of assay [1] is AR-null (AR-negative) prostate cancer cell lines. Briefly: MTT cell viability assay, AR-negative cells. The settings on record: growth inhibition grade, 6 days. The protocol: (§1) FIGS. 3A-Q. Growth inhibitory effects of selected compounds. The indicated cells were exposed to the indicated compounds for 6 days; cell viability was measured by MTT assay, and specific reporters were assayed using literature conditions. Results were normalized to that of vehicle control. Experiments were performed in quadruplicate; results are means±s.d.
(§2) JN053 and JN138-JN156 were synthesized and tested in biochemical and cell biologic assays that have been described elsewhere. The JN compounds were first studied in cell viability assays (MTT assay) to determine the efficacy and specificity of the JN compounds for inhibition of prostate cancer cell lines.
(§3) The growth inhibitory effect of the JN compounds was assessed through the MTT assay, which assesses the total number of viable cells in vitro. These experiments were performed in AR-expressing (AR-positive) prostate cancer cell lines to assess on target effects and AR-null (AR-negative) prostate cancer cell lines to assess off target effects (i.e. specificity).
Background: Tetrazolium assays rely on reduction of a dye to a coloured formazan, in cell work by metabolically active cells.

The subject of assay [2] is AR-expressing (AR-positive) prostate cancer cell lines. Description: MTT cell viability assay, AR-positive cells. The settings on record: growth inhibition grade, 6 days. The protocol:
as §1, §2, §3
AR-expressing (AR-pos): • LNCaP: full length AR • LNCaP AR: overexpression of full length AR • 22Rv1: full length AR and ARV7 • VCaP: full length AR and ARV7 • CWR22: full length AR and ARV7

The target in a further assay is T1, androgen receptor (AR) (Homo sapiens, UniProt P10275).
T1 construct: either endogenously or exogenously express the full-length AR and ARV7
T1 sequence (P10275 whole entry): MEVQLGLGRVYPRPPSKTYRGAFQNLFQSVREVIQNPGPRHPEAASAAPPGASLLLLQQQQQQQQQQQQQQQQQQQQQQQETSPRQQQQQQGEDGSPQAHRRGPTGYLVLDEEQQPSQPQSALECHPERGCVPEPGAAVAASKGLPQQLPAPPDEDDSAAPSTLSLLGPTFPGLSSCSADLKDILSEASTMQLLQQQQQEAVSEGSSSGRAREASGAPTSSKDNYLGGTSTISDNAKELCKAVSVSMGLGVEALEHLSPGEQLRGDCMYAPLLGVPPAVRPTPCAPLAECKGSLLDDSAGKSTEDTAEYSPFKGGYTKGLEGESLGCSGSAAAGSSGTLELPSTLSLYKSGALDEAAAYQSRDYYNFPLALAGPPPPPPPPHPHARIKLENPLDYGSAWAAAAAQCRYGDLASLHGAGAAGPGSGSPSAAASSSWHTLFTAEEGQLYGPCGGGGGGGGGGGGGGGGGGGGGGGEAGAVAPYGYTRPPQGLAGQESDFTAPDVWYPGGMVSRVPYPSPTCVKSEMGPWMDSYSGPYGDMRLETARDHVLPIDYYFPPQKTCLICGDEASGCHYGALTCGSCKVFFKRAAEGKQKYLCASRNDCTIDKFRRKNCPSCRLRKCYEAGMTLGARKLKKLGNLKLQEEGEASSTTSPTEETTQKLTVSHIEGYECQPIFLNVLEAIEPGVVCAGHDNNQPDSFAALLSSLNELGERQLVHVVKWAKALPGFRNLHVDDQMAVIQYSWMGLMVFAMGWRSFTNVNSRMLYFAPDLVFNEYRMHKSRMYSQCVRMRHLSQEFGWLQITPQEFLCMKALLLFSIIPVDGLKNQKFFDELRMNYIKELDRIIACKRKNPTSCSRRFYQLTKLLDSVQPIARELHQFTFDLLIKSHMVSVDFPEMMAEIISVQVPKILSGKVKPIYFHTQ
Description: MMTV-luciferase reporter assay (AR-dependent). The settings on record: inhibition grade. The protocol: (§4) The biochemical assays include reporter assays to determine the activity and specificity of these JN compounds to inhibit the transcriptional activity of the androgen receptor (AR). […] The reporter assays were performed in replicates and across a wide range of concentrations (generally […]).
(§5) The reporter systems utilized include: • MMTV-luciferase: AR-dependent • ARE-luciferase: AR-dependent • GRE-luciferase: glucocorticoid receptor (GR)-dependent • CRE-luciferase: CREB-dependent • AP1-luciferase: AP1 (jun and fos family)-dependent: • AR-TAD-luciferase: dependent on AR transactivation domain • CREB-TAD-luciferase: dependent on CREB transactivation domain • JUN-TAD-luciferase: dependent on c-Jun transactivation domain
In general terms: A reporter such as luciferase makes a cellular process visible.

The test system of assay [3] is c-Jun transactivation domain. Briefly: JUN-TAD-luciferase reporter assay. The note with it: inhibition grade. The method, then: (§6) The biochemical assays include reporter assays to determine the activity and specificity of these JN compounds to inhibit the transcriptional activity of the androgen receptor (AR). The reporter assays were conducted in various cell lines that either endogenously or exogenously express the full-length AR and ARV7, a constitutively active splice variant that is resistant to all clinically available AR targeting compounds. The reporter assays were performed in replicates and across a wide range of concentrations (generally […]).
as §5

For assay [4], the system named is CREB transactivation domain. Description: CREB-TAD-luciferase reporter assay. The note with it: inhibition grade. The method, then: as §6, §5
In assay [5] the target is glucocorticoid receptor (GR) (Homo sapiens, UniProt P04150). Description: GRE-luciferase reporter assay. The settings on record: GR-dependent, inhibition grade. The protocol: as §6, §5
Chain of glucocorticoid receptor (GR) (P04150 whole entry, species assumed): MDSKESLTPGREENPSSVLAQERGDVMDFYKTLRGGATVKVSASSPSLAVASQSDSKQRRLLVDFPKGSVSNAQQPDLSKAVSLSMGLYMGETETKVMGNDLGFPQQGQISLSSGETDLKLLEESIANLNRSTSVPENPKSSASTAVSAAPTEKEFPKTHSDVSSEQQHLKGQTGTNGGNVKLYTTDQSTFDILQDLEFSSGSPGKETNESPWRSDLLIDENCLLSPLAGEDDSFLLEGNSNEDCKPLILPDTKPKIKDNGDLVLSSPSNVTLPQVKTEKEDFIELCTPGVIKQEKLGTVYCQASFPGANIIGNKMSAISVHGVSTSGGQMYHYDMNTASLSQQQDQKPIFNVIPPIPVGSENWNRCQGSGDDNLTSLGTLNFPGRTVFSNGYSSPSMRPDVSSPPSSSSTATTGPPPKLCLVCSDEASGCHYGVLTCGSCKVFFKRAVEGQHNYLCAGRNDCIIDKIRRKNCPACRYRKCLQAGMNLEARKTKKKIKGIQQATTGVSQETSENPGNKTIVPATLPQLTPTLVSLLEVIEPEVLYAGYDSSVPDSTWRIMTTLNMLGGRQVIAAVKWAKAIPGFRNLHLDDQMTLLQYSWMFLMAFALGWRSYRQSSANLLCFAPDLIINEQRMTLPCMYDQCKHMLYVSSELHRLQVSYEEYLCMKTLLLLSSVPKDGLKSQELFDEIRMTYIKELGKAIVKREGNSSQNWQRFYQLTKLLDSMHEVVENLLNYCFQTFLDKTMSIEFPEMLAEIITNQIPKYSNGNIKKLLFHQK
For the next assay, the system named is AP1 (jun and fos family). Briefly: AP1-luciferase reporter assay. The settings on record: inhibition grade. The method, then: as §6, §5
Assay [6] deals with AR transactivation domain (Homo sapiens, UniProt P10275). Description: AR-TAD-luciferase reporter assay. The settings on record: inhibition grade. The method, then: as §4, §5
Chain of AR transactivation domain (P10275 1-559 limits assumed): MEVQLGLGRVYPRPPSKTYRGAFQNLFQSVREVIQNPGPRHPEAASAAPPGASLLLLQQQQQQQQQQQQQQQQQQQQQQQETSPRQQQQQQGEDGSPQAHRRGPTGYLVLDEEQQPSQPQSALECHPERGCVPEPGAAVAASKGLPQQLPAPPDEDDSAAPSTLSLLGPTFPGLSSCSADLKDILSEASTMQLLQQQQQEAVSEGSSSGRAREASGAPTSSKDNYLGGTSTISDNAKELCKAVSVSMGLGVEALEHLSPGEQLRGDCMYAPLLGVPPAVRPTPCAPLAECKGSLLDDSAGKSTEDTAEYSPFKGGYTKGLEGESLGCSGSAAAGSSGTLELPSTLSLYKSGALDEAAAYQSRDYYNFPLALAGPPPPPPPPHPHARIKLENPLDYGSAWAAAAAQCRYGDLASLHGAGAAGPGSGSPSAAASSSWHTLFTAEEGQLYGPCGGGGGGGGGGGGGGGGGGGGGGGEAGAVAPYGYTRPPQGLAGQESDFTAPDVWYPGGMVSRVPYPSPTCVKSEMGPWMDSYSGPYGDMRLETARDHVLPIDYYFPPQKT
Assay [7] relates to 22Rv1 (full-length and splice variant AR). Briefly: Colony formation assay, 22Rv1. The settings on record: 22Rv1, 2-10 μm, two weeks. The method, then: (§7) DU145, PC3LNCaP-AR (full-length AR), 22Rv1 (full-length and splice variant AR), and VCaP cells (400 cells/well of 6-well plate) were treated with indicated 0 (pure DMSO), 2, 4, 6, 8, 10 μm of JN103 for two weeks. Colonies were visualized with methylene blue staining.

In another assay the target is T2, AR (Homo sapiens, UniProt P10275).
T2 construct: a breast cancer cell line that co-expresses AR, ER, and PR; endogenous in cells; host or cells: T47D breast cancer cells
Briefly: Western blot protein degradation, T47D breast cancer cells, AR. The note with it: breast cancer cell line that co-expresses AR, ER, and PR (T47D). The method, then: (§8) LNCaP-AR cells were treated with JN103 and cycloheximide (to inhibit translation) at the indicated doses and times (FIG. 11A). Cell protein was subjected to Western blotting for the indicated proteins. The same tests were performed on LNCaP-95 cells, HEK-293 cells engineered to ectopically express ARΔ567, PC3 cells, and T47D breast cancer cells.
On the technique in general: Immunoblotting shows a protein as a band on a membrane.

Assay [8] has as its target T3, full-length AR overexpressed in LNCaP-AR cells (Homo sapiens, UniProt P10275).
T3 construct: the full-length AR overexpressed in LNCaP-AR cells; expressed in transfected cells; host or cells: LNCaP-AR cells
Description: Western blot protein degradation with cycloheximide, LNCaP-AR cells. The method, then: as §8

For the next assay, the system named is AR-null DU145 cells. Briefly: Colony formation assay, DU145. The settings on record: DU145, 2-10 μm, two weeks. The protocol: as §7
Assay [9] concerns breast cancer cell line (T47D). Briefly: MTT assay on non-prostate cancer cell lines. The settings on record: 2-8 μm, 5 days. The method, then: The growth-inhibitory effects of JN103 were also assessed in MTT assays on 20 non-prostate cancer cell lines. (FIG. 13). Cells were exposed to 0 (pure DMSO), 2, 4, 6, and 8 μm of JN103 for 5 days and subjected to MTT assay to determine cell viability. Results are means of quadruplicates.

Assay [10] deals with VCaP (full-length and splice variant AR). Description: Colony formation assay, VCaP. The settings on record: 2-10 μm, two weeks. The protocol: as §7
The next assay concerns full-length AR and AR-V7. Description: Western blot protein degradation with cycloheximide, LNCaP-95 cells. The note with it: endogenously expressed. The method, then:
as §8

A further assay has as its system PC3 cell. Description: Colony formation assay, PC3. The note with it: PC3, at high concentrations, two weeks. The method, then:
as §7

For a further assay, the system named is actin or the GR. Description: Western blot protein degradation, other proteins. The note with it: FIGS. 11(A)-11(D). The method, then: as §8
The test system of assay [11] is AR transcriptional program. Description: Whole transcriptomic RNA-sequencing, gene set expression analysis. The settings on record: LNCaP-AR and 22Rv1 cells, 10 μM, 8 hours. The protocol:
Negative enrichment scores (NES are shown for the AR transcriptional program.
Whole transcriptomic RNA-sequencing was performed for two castration resistant cell lines (LNCaP-AR and 22Rv1), which were exposed to JN103 (10 μM) for 8 hours. The experimental results as determined by gene set expression analysis (FIG. 10) show negative enrichment scores (NES) for the AR transcriptional program.

Another assay has as its target T4, ARΔ567 (Homo sapiens, UniProt P10275).
T4 construct: expressed in transfected cells; host or cells: HEK-293 cells
Description: Western blot protein degradation with cycloheximide, HEK-293 cells. The note with it: ectopically expressed. The method, then: as §8

Assay [12] relates to LNCaP-AR (full-length AR). Description: Colony formation assay, LNCaP-AR. The settings on record: 2-10 μm, two weeks. The method, then: as §7
The test system of the next assay is ER or PR. Briefly: Western blot protein degradation, T47D breast cancer cells, ER and PR. The note with it: breast cancer cell line that co-expresses AR. The method, then:
as §8

T4 sequence (P10275 with tags, fused parts or gaps limits assumed): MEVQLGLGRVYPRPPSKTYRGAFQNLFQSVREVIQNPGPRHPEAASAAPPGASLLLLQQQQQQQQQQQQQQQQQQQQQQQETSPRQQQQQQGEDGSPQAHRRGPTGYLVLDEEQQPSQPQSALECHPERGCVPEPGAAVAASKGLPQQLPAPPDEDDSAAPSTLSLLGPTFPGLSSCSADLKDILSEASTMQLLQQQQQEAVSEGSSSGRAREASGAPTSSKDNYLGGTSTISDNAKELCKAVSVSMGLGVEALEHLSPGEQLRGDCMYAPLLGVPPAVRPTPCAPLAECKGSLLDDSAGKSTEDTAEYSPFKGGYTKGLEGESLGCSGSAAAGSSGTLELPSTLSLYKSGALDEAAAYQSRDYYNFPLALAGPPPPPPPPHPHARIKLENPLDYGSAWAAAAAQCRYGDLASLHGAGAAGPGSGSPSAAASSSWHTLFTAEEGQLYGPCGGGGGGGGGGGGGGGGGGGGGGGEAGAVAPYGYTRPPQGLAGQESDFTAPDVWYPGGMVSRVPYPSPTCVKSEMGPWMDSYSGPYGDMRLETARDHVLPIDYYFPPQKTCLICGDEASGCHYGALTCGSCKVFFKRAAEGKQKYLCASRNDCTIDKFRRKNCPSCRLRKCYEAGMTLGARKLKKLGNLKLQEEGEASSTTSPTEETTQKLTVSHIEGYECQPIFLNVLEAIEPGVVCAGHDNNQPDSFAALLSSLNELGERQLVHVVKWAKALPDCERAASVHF
T3 sequence (P10275 whole entry): as the sequence (P10275 whole entry) above

Regarding `C=C1CC(c2ccc(OC)cc2)=C(c2ccccc2)C1=O` [JN053], the “MTT AR Neg” value in assay [1] is “LOW”. The “MTT AR-Pos” value in assay [2] is on record as “LOW”. Also, the MMTV result at androgen receptor (AR) is on record as “MED”.

On to `CNC(=O)c1ccc(N2C(=S)N(c3ccc(C#N)c(C(F)(F)F)c3)C(=O)C2(C)C)cc1F` [MDV3100, reference compound], for which, in [3], the JUN-TAD entry was “LOW”. In addition, in assay [4], the CREB-TAD entry is “LOW”. Besides, the “MTT AR Neg” value in assay [1] is given as “LOW”. Besides, in [2], the “MTT AR-Pos” value was “HIGH”. In assay [5], the GRE result was “LOW”. The AP1 result in the assay on AP1 (jun and fos family) is listed as “HIGH”.

Turning to `C=C(C)C(=O)NC(=O)/C(=C/c1ccc(Cl)cc1)c1ccc(C(F)(F)F)cc1` [JN152], the CREB-TAD entry in assay [4] is on record as “HIGH”. The “MTT AR Neg” value in assay [1] is recorded as “LOW”. Also, the “MTT AR-Pos” value in [2] is recorded as “HIGH”. Besides, in [6], the AR-TAD entry is “HIGH”. At androgen receptor (AR), the MMTV entry is given as “HIGH”. Further, the GRE result in assay [5] was “HIGH”.

On to `C=C(C)C(=O)NC(=O)/C(=C/c1ccc(Cl)cc1)c1ccc(F)cc1` [JN103, (E)-3-(4-Chlorophenyl)-2-(4-fluorophenyl)-N-methacryloylacrylamide], for which the colony formation result in assay [7] is listed as “inhibits the growth”; with AR-null DU145 cells it was “limited impact on colony formation”; in [10], “inhibits the growth”; with PC3 cell, “only mild effects”; in assay [12], “inhibits the growth”. On AR, the “degradation of the AR” value was “induces degradation of the AR”. In assay [8], the “degradation of full-length AR” value is “potently induces time- and dose-dependent degradation”. Besides, the “growth inhibition (MTT cell viability)” value in assay [9] was “significant growth inhibition”. Moreover, in the assay with full-length AR and AR-V7, the “degradation of full-length AR and AR-V7” value is “potently induces time- and dose-dependent degradation”. The “degradation of other proteins, including actin or the GR” value in the assay on actin or the GR is listed as “does not affect the degradation”. Besides, the “AR gene signature (gene set expression analysis)” value in [11] is “marked decrease in the AR gene signature”. Besides, the “degradation of ARΔ567” value on ARΔ567 is “potently induces time- and dose-dependent degradation”. Besides, the “degradation of the ER or PR” value in the assay with ER or PR was “not the ER or PR”.
